Reference: patent publication US5114920A, “BU-3292T antibiotics” (priority 1988, dated 1992)
In brackets after ≈: the same amount, converted by molar mass. Starred links: 1 amine or outer side, 2 acyl side, 3 side chain; linkers in the order of their positions; H or OH if unused. Positions of bridges follow the written chain, without caps; N, C: chain ends. Non-standard residues stand in square brackets, D forms with d. Residues, ends and D or L forms follow the SMILES beside them. Chains are numbered I, II in the order given. Actinocin(9to1) = Cc1c2oc3c(C)ccc(C(=O)[*:1])c3nc-2c(C(=O)[*:2])c(N)c1=O; NMeV = CN[C@H](C(=O)O)C(C)C; Sar = CNCC(=O)O

Assays:
[1] = tested on: Moser (human colorectal carcinoma) cells; assay: In vitro cytotoxicity, neutral red staining; type: cell-based; settings: 72 hours
Protocol: (§1) BU-3292T components A and B were tested for in vitro cytotoxicity against murine and human tumor cells and for in vivo antitumor activity in mice. Actinomycin D was used as a reference compound in both in vitro and in vivo experiments. B16-F10 (murine melanoma) and Moser (human colorectal carcinoma) cells were grown to the logarithmic phase in enriched Eagle minimum essential medium (MEM) supplemented with fetal calf serum (FCS, 10%) and kanamycin (60 mcg/ml), harvested and inoculated into wells of a 96-well microtiter plate with test materials at the concentrations of 3.0×10^4 and 6.0×10^4 cells/ml, respectively. They were incubated at 37° C. in humidified atmosphere of 5% CO2 and 95% air for 72 hours. The cytotoxic activity was determined colorimetrically at 540 nm after staining viable cells with neutral red. […] Inhibitory effects of BU-3292T component A on macromolecule (DNA, RNA and protein) synthesis were determined in vitro. Cultured L1210 murine leukemia cells (5×10^5 cells/ml) were incubated with test materials at 37° C. for 15 minutes and then further incubated for 60 minutes after the addition of labelled precursor, ^3 H-thymidine, ^14 C-uridine or ^3 H-leucine, into the cultured mixtures. After washing with chilled 5% trichloroacetic acid solution, the radioactivity incorporated into the acid-insoluble fraction of the tumor cells was determined in a liquid scintillation counter. […] In vivo antitumor activities of BU-3292T components A and B were tested in tumor-bearing female CDF mice. After the intraperitoneal implantation of diluted ascitic fluid with 1.0 ×10^6 lymphocytic leukemia P388 cells into the mice, test compounds were administered intraperitoneally once a day on days 1, 2 and 3 (QD×3).

[2] = tested on: B16-F10 (murine melanoma) cells; assay: In vitro cytotoxicity, neutral red staining; type: cell-based; settings: B16-F10; 72 hours
Protocol: as §1

[3] = tested on: DNA synthesis in L1210 leukemia cells; assay: Inhibition of macromolecule synthesis, 3H-thymidine incorporation; type: cell-based, murine
Protocol: BU-3292T components A and B were tested for in vitro cytotoxicity against murine and human tumor cells and for in vivo antitumor activity in mice. Actinomycin D was used as a reference compound in both in vitro and in vivo experiments. B16-F10 (murine melanoma) and Moser (human colorectal carcinoma) cells were grown to the logarithmic phase in enriched Eagle minimum essential medium (MEM) supplemented with fetal calf serum (FCS, 10%) and kanamycin (60 mcg/ml), harvested and inoculated into wells of a 96-well microtiter plate with test materials at the concentrations of 3.0×10^4 and 6.0×10^4 cells/ml, respectively. They were incubated at 37° C. in humidified atmosphere of 5% CO2 and 95% air for 72 hours. The cytotoxic activity was determined colorimetrically at 540 nm after staining viable cells with neutral red. […] Inhibitory effects of BU-3292T component A on macromolecule (DNA, RNA and protein) synthesis were determined in vitro. […] After washing with chilled 5% trichloroacetic acid solution, the radioactivity incorporated into the acid-insoluble fraction of the tumor cells was determined in a liquid scintillation counter. […]

[4] = tested on: Protein synthesis in L1210 leukemia cells; assay: Inhibition of macromolecule synthesis, 3H-leucine incorporation; type: cell-based, murine; settings: L1210 leukemia cells; 3H-leucine
Protocol: as §1

[5] = tested on: RNA synthesis in L1210 leukemia cells; assay: Inhibition of macromolecule synthesis, 14C-uridine incorporation; type: cell-based, murine; settings: L1210 leukemia cells; 14C-uridine
Protocol: as §1

[6] = tested on: Clostridium perfringens A9635; type: cell-based; settings: GAM agar
[7] = Body weight change in P388-bearing mice; settings: QD × 3, ip
Protocol: as §1

[8] = tested on: lymphocytic leukemia P388; assay: Antitumor activity against P388 leukemia (ip); type: in vivo, mice; settings: QD × 3, ip
Protocol: as §1

Micrococcus luteus 1001 = assay: Antimicrobial activity, serial two-fold agar dilution method; type: cell-based; settings: Nutrient agar
Protocol: (§2) The antimicrobial activity of BU-3292T A and B was determined against aerobic and anaerobic bacteria and fungi by a serial two-fold agar dilution method. BU-3292T A and B are active against aerobic gram-positive bacteria, and weakly active against anaerobic gram-negative bacteria and fungi.

[9] = tested on: Trichophyton mentagrophytes D155; assay: as above; type: cell-based; settings: Sabouraud dextrose agar
Protocol: as §2

[10] = tested on: Propionibacterium acnes A21933; assay: as above; type: cell-based; settings: GAM agar
Protocol: as §2

[11] = tested on: Bacteroides fragilis A22693; assay: as above; type: cell-based; settings: GAM agar
Protocol: as §2

[12] = tested on: Propionibacterium anaerobius A21905; assay: as above; type: cell-based; settings: GAM agar
Protocol: as §2

Mucor spinosus IFO 5317 = assay: as above; type: cell-based
Protocol: as §2

[13] = tested on: Staphylococcus aureus smith; assay: as above; type: cell-based; settings: Nutrient agar
Protocol: as §2

Proteus vulgalis A9436 = assay: as above; type: cell-based; settings: Nutrient agar
Protocol: as §2

[14] = tested on: Staphylococcus epidermidis D153; assay: as above; type: cell-based; settings: Nutrient agar
Protocol: as §2

[15] = tested on: Cryptococcus neoformans IAM 4519; assay: as above; type: cell-based; settings: Sabouraud dextrose agar
Protocol: as §2

[16] = tested on: Staphylococcus aureus 209P; assay: as above; type: cell-based; settings: Nutrient agar
Protocol: as §2

[17] = tested on: Aspergillus fumigatus IAM 2530; assay: as above; type: cell-based; settings: Sabouraud dextrose agar
Protocol: as §2

[18] = tested on: Klebsiella pneumoniae D11; assay: as above; type: cell-based; settings: Nutrient agar
Protocol: as §2

[19] = tested on: Clostridium difficile A21675; assay: as above; type: cell-based; settings: GAM agar
Protocol: as §2

[20] = tested on: Fusarium moniliforme A2284; assay: as above; type: cell-based; settings: Sabouraud dextrose agar
Protocol: as §2

[21] = tested on: Pseudomonas aeruginosa A9930; assay: as above; type: cell-based; settings: Nutrient agar
Protocol: as §2

Escherichia coli NIHJ = assay: as above; type: cell-based; settings: Nutrient agar
Protocol: as §2

[22] = tested on: Streptococcus pyogenes A20201; assay: as above; type: cell-based; settings: Nutrient agar
Protocol: as §2

[23] = tested on: Bacillus subtilis PCI-219; assay: as above; type: cell-based; settings: Nutrient agar
Protocol: as §2

[24] = tested on: Candida albicans IAM 4888; assay: as above; type: cell-based; settings: Sabouraud dextrose agar
Protocol: as §2

Proteus mirabilis A9554 = assay: as above; type: cell-based; settings: Nutrient agar
Protocol: as §2

[25] = tested on: Streptococcus faecalis A9612; assay: as above; type: cell-based; settings: Nutrient agar
Protocol: as §2

For Cc1c2oc3c(C)ccc(C(=O)N[C@@H]4C(=O)N[C@H](C(C)C)C(=O)N5CCC[C@H]5C(=O)N(C)CC(=O)N(C)[C@@H](C(C)C)C(=O)O[C@@H]4C)c3nc-2c(C(=O)N[C@@H]2C(=O)N[C@H](C(C)C)C(=O)N3CCC[C@H]3C(=O)N(C)CC(=O)N(C)[C@@H](C(C)C)C(=O)O[C@@H]2C)c(N)c1=O [Actinomycin D, reference compound] (I: T[dV]P[Sar][NMeV] / II: T[dV]P[Sar][NMeV]; ester I:1-I:C, II:1-II:C; linker I:N-II:N via Actinocin(9to1)), the IC50 [1] was 0.9 µg/mL (≈ 0.717 µM), the IC50 [2] was 0.002 µg/mL (≈ 0.00159 µM) and the “IC50 DNA” value [3] was 8.1 µg/mL (≈ 6.45 µM). The “IC50 Protein” value [4] was greater than 100 µg/mL, the “IC50 RNA” value [5] was 0.17 µg/mL (≈ 0.135 µM) and the MIC [6] was 6.3 µg/mL (≈ 5.02 µM). For the same compound, the “Body weight change on day 4” value ([7]; 0.001 mg/kg/day) was “+1.3 g”, the “Body weight change on day 4” value ([7]; 0.01 mg/kg/day) was “+1.3 g” and the “Body weight change on day 4” value ([7]; 0.03 mg/kg/day) was “+0.5 g”. The “Body weight change on day 4” value ([7]; 0.1 mg/kg/day) was -2.0 g, the “Body weight change on day 4” value ([7]; 0.3 mg/kg/day) was -3.5 g and the “MST (Median survival time)” value ([8]; 0.001 mg/kg/day) was 11.0 days. For the same compound, the T/C ([8]; 0.001 mg/kg/day) was 110%, the “MST (Median survival time)” value ([8]; 0.003 mg/kg/day) was 13.5 days and the T/C ([8]; 0.003 mg/kg/day) was 135%. The “MST (Median survival time)” value ([8]; 0.01 mg/kg/day) was 14.0 days, the T/C ([8]; 0.01 mg/kg/day) was 140% and the “MST (Median survival time)” value ([8]; 0.03 mg/kg/day) was 15.0 days. The T/C ([8]; 0.03 mg/kg/day) was 150%, the “MST (Median survival time)” value ([8]; 0.1 mg/kg/day) was 16.0 days and the T/C ([8]; 0.1 mg/kg/day) was 160%. For the same compound, the “MST (Median survival time)” value ([8]; 0.3 mg/kg/day) was 7.0 days, the T/C ([8]; 0.3 mg/kg/day) was 70% and the MIC (Micrococcus luteus 1001) was 0.2 µg/mL (≈ 0.159 µM). The MIC [9] was greater than 100 µg/mL, the MIC [10] was 6.3 µg/mL (≈ 5.02 µM) and the MIC [11] was greater than 100 µg/mL. It also gave an MIC [12] of 1.6 µg/mL (≈ 1.27 µM), an MIC (Mucor spinosus IFO 5317; Mucor spinosus IFO 5317, Sabouraud dextrose agar) greater than 100 µg/mL and an MIC (Mucor spinosus IFO 5317; in vitro against Mucor spinosus IF05317) greater than 100 µg/mL. For the same compound, the MIC [13] was 0.4 µg/mL (≈ 0.319 µM), the MIC (Proteus vulgalis A9436) was greater than 100 µg/mL and the MIC [14] was 0.4 µg/mL (≈ 0.319 µM). For the same compound, the MIC [15] was greater than 100 µg/mL, the MIC [16] was 0.4 µg/mL (≈ 0.319 µM) and the MIC [17] was greater than 100 µg/mL. The MIC [18] was 25 µg/mL (≈ 19.9 µM), the MIC [19] was 25 µg/mL (≈ 19.9 µM) and the MIC [20] was greater than 100 µg/mL. For the same compound, the MIC [21] was 100 µg/mL (≈ 79.7 µM), the MIC (Escherichia coli NIHJ) was greater than 100 µg/mL and the MIC [22] was 0.2 µg/mL (≈ 0.159 µM). For the same compound, the MIC [23] was 0.2 µg/mL (≈ 0.159 µM), the MIC [24] was greater than 100 µg/mL and the MIC (Proteus mirabilis A9554) was greater than 100 µg/mL. For the same compound, the MIC [25] was 0.1 µg/mL (≈ 0.0797 µM).
